Tested on: C57BL/6 mice
Experiment: Serum hGH in adenoviral infected mice after RU486 (radio-immunoassay)
Type: in vivo, mouse
Description: RU486 (250 μg/kg) was administered every second day after infection for a period of two weeks as indicated by arrows. Mice were bled at different time points and serum hGH was analyzed by radio-immunoassay. Mice 1 and 2 received intraperitoneal injections (IP) of RU486; Mouse 3 (−RU486) received sesame oil. hGH serum levels are shown as μg/ml.
Mice infected for two weeks with the regulatable adenoviral construct hGHGLp65 were induced with […] RU486 as indicated by an arrow. 3, 6, 12, 24, 48, 72, 120 and 192 hours after RU486 administration blood was drawn from the mice, and hGH was measured in the serum by a radio-immunoassay. hGH serum levels of individual mice are shown in μg/ml.
Mice infected with hGH-GLp65 or hGH-H-GLp65 adenoviral vectors were induced 3 times with 250 μg/kg RU486 over a time period of 50 Days. hGH was measured prior to, 12 hours after, and 7 days after RU486 administration. […] Serum levels of hGH are shown in μg/ml.
hGH analysis in adenoviral infected mice. […] Serum hGH levels were detected using a radio-immunoassay. […]
To investigate the kinetics of the regulatory system, mice received a single RU486 administration two weeks after the initial infection and serum hGH levels were measured at different time intervals. […]

For `CC#C[C@]1(O)CC[C@H]2[C@@H]3CCC4=CC(=O)CCC4=C3[C@@H](c3ccc(N(C)C)cc3)C[C@@]21C` [RU486, mifepristone], the “doses of RU486 needed for induction” value (induction of transgene in the regulatory system) was 0.1 to 0.5 mg/kg and the “hGH induction with oral versus I.P. RU486” value (oral RU486 administration compared with intraperitoneal) was “comparable”.

Reference: US20050196751A1, “Adenoviral vector-mediated delivery of modified steroid hormone receptors and related products and methods” (priority 1998, published 2005)
